# Reference: patent publication US8796201B2 (The Board of Trustees of the Leland Stanford Junior …, priority 2002, dated 2014)
# Entries after “also recorded” stand apart in the source; their conditions may differ. Where no end group is shown, it is not given here.
# B1: papain: papain (P-5306, Sigma) (protein, UniProt P00784 134-345, looked up)
# Papain: IPEYVDWRQKGAVTPVKNQGSCGSCWAFSAVVTIEGIIKIRTGNLNEYSEQELLDCDRRSYGCNGGYPWSALQLVAQYGIHYRNTYPYEGVQRYCRSREKGPYAAKTDGVRQVQPYNEGALLYSIANQPVSVVLEAAGKDFQLYRGGIFVGPCGNKVDHAVAAVGYGPNYILIKNSWGTGWGENGYIRIKRGTGNSYGVCGLYTSSFYPVKN
# Legend:
# α2-gliadin = test: EPB2 activation and α2-gliadin digestion under acidic conditions; format: biochemical, wheat
# Description: The gene for an endoprotease (EPB2; […] accession number U19384, nt 94-1963) from barley (Hordeum vulgare subsp. vulgare) was subcloned into a pET28b (Invitrogen) vector using BamH1 and EcoR1 insertion sites; the resulting plasmid was designated pMTB1. […] The proprotein was solubilized from the inclusion bodies using 7 M urea. The solubilized protein was purified on a Ni-NTA column. Auto-activation of proEPB2 to its mature, active form was achieved by addition of citrate-phosphate buffer, pH 3 (prepared by mixing 0.1 M sodium citrate and 0.2 M sodium phosphate). Under such acidic conditions, proEPB2 converts rapidly into a mature form with a molecular weight of 30 kDa (FIG. 2). By 72 hours, mature EPB2 undergoes autolysis. N-terminal sequencing yielded an N-terminal sequence beginning with VSDLP.
# The pH optimum of proEPB2 activation and α2-gliadin digestion is 2.4-3.5, which can therefore provide a treatment for Celiac Sprue consisting of oral administration of proEPB2.
# [1] = test system: MX PEP (recombinant prolyl endopeptidase from Myxococcus xanthus); test: 0.1 μM MX PEP in PBS buffer; conditions: 37° C.
# [2] = test system: FM PEP (recombinant prolyl endopeptidase from Flavobacterium meningosepticum); test: 0.1 μM FM PEP in PBS buffer; conditions: 37° C.
# chymotrypsin = test: gastric and pancreatic proteases, chymotrypsin playing a major role
# [3] = test system: pepsin (1:100 w/w ratio), trypsin (1:100), chymotrypsin (1:100), elastase (1:500) and carboxypeptidase (1:100); test: composite gastric/pancreatic enzymatic digestion
# [4] = test system: pepsin or any pancreatic enzyme; test: pepsin or any pancreatic enzyme
# [5] = test system: SC PEP (recombinant prolyl endopeptidase from Sphingomonas capsulata); test: 0.1 μM SC PEP in PBS buffer; conditions: 37° C., up to t=5 min
# [6] = test system: prolyl endopeptidase (PEP, specific activity 28 μU/pg) from Flavobacterium meningosepticum (US Biological, MA); test: 27 ng/μl brush border membranes with exogenous prolyl endopeptidase from Flavobacterium meningosepticum; conditions: rat, up to one hour
# [7] = test system: rat brush border membrane (BBM) peptidases; format: in vitro ADME
# Description: To investigate the digestion of gluten, liquid chromatography coupled mass spectroscopy analysis (LC-MS-MS) was utilized to investigate the pathways and associated kinetics of hydrolysis of immunodominant gliadin peptides treated with rat BBM preparations. Because the rodent is an excellent small animal model for human intestinal structure and function, rat BBM was chosen as a suitable model system for these studies.
# BBM fractions were prepared from rat small intestinal mucosa as described in Ahnen et al. (1982) J. Biol. Chem. 257, 12129-35. […] No proline aminopeptidase (EC 3.4.11.5) or prolyl endopeptidase activity (PEP, EC 3.4.21.26) activity was detectable (<5 μU/μg). Alkaline phosphatase and sucrase were used as control BBM enzymes with activities of 66 μU/μg and 350 μU/μg, respectively.
# BBM fractions were partially purified from the small intestinal mucosa of adult female rats maintained on an ad libitum diet of wheat-based standard rodent chow. Total protein content was determined by a modified method of Lowry with BSA as a standard. Alkaline phosphatase activity was determined with nitrophenyl phosphate. Sucrase activity was measured using a coupled glucose assay. […] PEP activity was determined continuously with 0.4 mM Z-Gly-Pro-pNA in PBS:H2O:dioxane (8:1.2:0.8) at 30° C. One unit is the consumption of 1 μmol substrate per minute.
# Proteolysis with the BBM preparation was investigated using the peptide (SEQ ID NO:1) […], a product of chymotryptic digestion of α-9 gliadin (Arentz-Hansen et al. (2000) J. Exp. Med. 191, 603-12). […] It was subjected to BBM digestion, followed by LC-MS-MS analysis. A standard 50 μl digestion mixture contained 100 μM of synthetic peptide, 10 μM tryptophan and Cbz-tryptophan as internal standards, and resuspended BBM preparations with a final protein content of 27 ng/μl and exogenous proteins, as indicated, in phosphate buffered saline. After incubation at 37° C. for the indicated time, the enzymes were inactivated by heating to 95° C. for 3 minutes. The reaction mixtures were analyzed by LC-MS (SpectraSystem, ThermoFinnigan) using a C18 reversed phase column (Vydac 218TP5215, 2.1×150 mm) with water:acetonitrile:formic acid (0.1%):trifluoroacetic acid (0.025%) as the mobile phase (flow: 0.2 ml/min) and a gradient of 10% acetonitrile for 3 minutes, 10-20% for 3 minutes, 20-25% for 21 minutes followed by a 95% wash. Peptide fragments in the mass range of m/z=300-2000 were detected by electrospray ionization mass spectroscopy using a LCQ ion trap and their identities were confirmed by MSMS fragmentation patterns.
# BBM fractions were prepared from rat small intestinal mucosa.
# [8] = In vivo perfusion of peptides through rat jejunum; conditions: 15-20 cm jejunum segment, residence time 20 min
# Description: FIG. 5. In vivo brush border membrane digestion of peptides.
# In Vivo Endopeptidase Activity. An adult (female or male) rat was anesthetized and maintained at 36-37° C. during the entire surgical procedure. The peritoneal cavity was opened, and a small incision was made at the beginning and the end of a 15-20 cm jejunum segment. Polyethylene catheters were inserted and secured into the two ends. The input catheter was connected with a pump-driven syringe filled with a solution. The jejunum segment was perfused initially with PBS buffer to remove any residual debris at a flow rate of 0.4 ml/min. Purified peptide solutions (peptide concentration ranges from 25-100 μM) were then perfused at 0.4 ml/min through the jejunum segment with a 10-40 min residence time. In the case of a co-perfusion, the input catheter is connected with two simultaneous syringes, one with a peptide solution and the other with the prolyl endopeptidase solution (concentration ranges from 50-500 μU/μl). Fluid from the output catheter was collected into small centrifuge tubes in dry ice for subsequent analysis. The collected digestive products were analyzed by HPLC on a C18 column.
# [9] = test system: Lactobacillus helveticus PEP (Genbank ID#321529)
# PQPQLPYPQPQLP = test: Acceleration of brush border mediated digestion by exogenous endoproteases; format: biochemical, wheat; conditions: 27 ng/μl BBM, one hour
# Description: FIG. 3. Dose dependent acceleration of brush border mediated digestion by exogenous endoproteases. […] This peptide was digested with 27 ng/μl brush border membranes, either alone, with increasing amounts of exogenous prolyl endopeptidase (PEP, specific activity 28 μU/pg) from Flavobacterium meningosepticum (US Biological, MA), or with additional elastase (E-1250, Sigma, Mo.), bromelain (B-5144, Sigma, Mo.) or papain (P-5306, Sigma, Mo.) (12). After one hour, the fraction of remaining (SEQ ID NO:4) […] (compared to the initial amount at t=0 min) was analyzed and quantified as in FIG. 1.
# Alerted by the high proline content as a hallmark of most immunogenic gliadin peptides, a proline-specific endopeptidase was tested for the generation of new, free peptide termini. A literature search on available proteases led to the identification of prolyl endopeptidase (PEP) from Flavobacterium meningosepticum, which is specific for the C-terminal cleavage of prolines and readily available from recombinant sources (Yoshimoto et al. (1991) J. Biochem. 110, 873-8). The stable (SEQ ID NO:4) […] intermediate was digested with BBM in the presence of exogenous PEP. […] As little as 3.5 pg PEP/27 ng BBM protein was sufficient to double the extent of proteolysis of this gliadin fragment compared to incubation with BBM alone. In comparison, other commonly used proteases like papain, bromelain or porcine elastase were much less efficient, requiring 30-fold (papain) or 3000-fold (bromelain, elastase) higher amounts of enzyme compared to PEP to give similar results. Their proteolysis was restricted to the cleavage of the Gln^4-Leu^5 and/or Gln^11-Leu^12 bonds.
# A similar preferential cleavage was found for (SEQ ID NO:1) QLQPFP^↓QPQLPY. This is in agreement with the preference of this prolyl endopeptidase for a second proline in the S2′ position (Bordusa and Jakubke (1998) Bioorg. Med. Chem. 6, 1775-80). Based on this P^↓XP motif and on the present data, up to 16 new, major cleavage sites can be predicted in the α2-gliadin sequence, a major source of immunodominant epitopes identified thus far upon PEP treatment. All of them are located in the critical N-terminal part. The internal cleavage by PEP can be expected to generate additional (otherwise inaccessible) substrates for DPP IV and DCP thereby complementing the natural assimilation process of gliadins by the BBM. Thus, the specificity of prolyl endopeptidase is ideally suited for detoxification of persistent immunoactive gliadin peptides in Celiac Sprue.
# PQPQLPYPQPQLPY = test: Hydrolysis of gliadin peptide by pancreatic proteases; format: biochemical, wheat; conditions: elastase at 100 ng/μl (non-physiological)
# Description: Because BBM exopeptidases are restricted to N- or C-terminal processing, it was investigated if generation of additional free peptide ends by pancreatic enzymes would accelerate digestion.
# [10] = kidney or brush border membranes
molecule,measurement,setting,value
"EPB2: cysteine endoprotease from barley (Hordeum vulgare), accession U19384",digestion of purified α2-gliadin,"α2-gliadin; acidic conditions, mature form",efficiently digests purified α2-gliadin
same,time by which mature form undergoes autolysis,"α2-gliadin; citrate-phosphate buffer, pH 3",≤ 72 h
LQLQPFPQPQLPYPQPQLPYPQPQLPYPQPQPF,fragment found,[1],"YPQPQPF, first_seen, t=5 min"
same,fragment found,[2],"(SEQ ID NO:12, aa 1-19) LQLQPFPQPQLPYPQPQLP, first_seen, t=1 min; also recorded: (SEQ ID NO:12, aa 1-14) LQLQPFPQPQLPYP, first_seen, t=1 min; also recorded: (SEQ ID NO:12, aa 1-12) LQLQPFPQPQLP, first_seen, t=1 min; also recorded: QPQPF, first_seen, t=1 min"
same,not cleaved,chymotrypsin,remained intact despite prolonged exposure to proteases
same,not cleaved,[3],stable product of gastric and pancreatic digestion
PQPQLPYPQPQLP,not cleaved,[4],resistant to proteolysis by pepsin or any pancreatic enzyme
same,cleaved bond,[1]; up to t=5 min,"P-Y, major, t=5 min"
same,cleaved bond,[5],"P-Q, t=5 min; also recorded: P-Y, t=5 min"
same,cleaved bond,[2]; up to t=5 min,"P-Q, major, t=5 min"
same,cleaved bond,[6],"Pro8-Gln9, major; also recorded: Pro6-Tyr7, minor"
QLQPFPQPQLPY,apparent half life of disappearance of parent peptide,[7]; [10],35 min
same,fraction proteolyzed in the perfusion experiment,[8],> 90%
RPKHPIKHQ,cleaved bond,[9],P-I
RRLIEDNEYTARG,clearance of digestive intermediates,[7],cleared completely within one hour
same,apparent half life of disappearance of parent peptide,[7]; [10],10 min
WQIPEQSR,half-life of disappearance,[7]; [10],~60 min
YQEPVLGPVRGPFPIIV,cleaved bond,[9],P-V and P-I
bromelain [reference compound],higher amount of enzyme compared to PEP to give similar results,PQPQLPYPQPQLP,3000 fold
chymotrypsin,hydrolysis of PQPQLPYPQPQLPY,PQPQLPYPQPQLPY,No proteolysis was detected
"elastase: porcine elastase (E-1250, Sigma), pancreatic protease [reference compound]",hydrolysis of PQPQLPYPQPQLPY,PQPQLPYPQPQLPY,capable of hydrolyzing
same,higher amount of enzyme compared to PEP to give similar results,PQPQLPYPQPQLP,3000 fold
proEPB2: inactive proprotein form of barley endoprotease EPB2,pH optimum of proEPB2 activation and α2-gliadin digestion,α2-gliadin,2.4-3.5
trypsin,hydrolysis of PQPQLPYPQPQLPY,PQPQLPYPQPQLPY,No proteolysis was detected
B1,higher amount of enzyme compared to PEP to give similar results,PQPQLPYPQPQLP,30 fold
